Experiments:
Format in all cases: in vivo
[1] = system: Puccinia recondita f. sp. tritici; assay: Puccinia recondita f. sp. tritici / wheat / leaf disc preventative (brown rust); settings: for % reduction fungal growth: wheat, preventive
Procedure: (§1) Leaf disks or leaf segments of various plant species were cut from plants grown in the greenhouse. The cut leaf discs or segments were placed in multiwell plates (24-well format) onto water agar. The leaf disks were sprayed with a test solution before (preventative) or after (curative) inoculation. Compounds to be tested were prepared as water solutions (max. 10 mg/ml) which were diluted to the appropriate concentration with 0.025% Tween20 just before spraying. The inoculated leaf discs or segments were incubated under defined conditions (temperature, relative humidity, light, etc.) according to the respective test system. A single evaluation of disease level was carried out 3-9 days days after inoculation, depending on the pathosystem. Percent disease control relative to the untreated check leaf discs or segments was then calculated.
Puccinia recondita f. sp. tritici/Wheat/Leaf Disc Preventative (Brown Rust)
Wheat leaf segments cv. Kanzler were placed on agar in multiwell plates (24-well format) and sprayed with the formulated test compound diluted in water. The leaf disks were inoculated with a spore suspension of the fungus 1 day after application. The inoculated leaf segments were incubated at 19 °C and 75% rh under a light regime of 12 h light/12 h darkness in a climate cabinet and the activity of a compound was assessed as percent disease control compared to untreated leaf when an appropriate level of disease damage appeared in untreated check leaf segments (7-9 days after application).

[2] = system: Zymoseptoria tritici; assay: Leaf painting assay in wheat seedling, Zymoseptoria tritici preventive
Procedure: Wheat seedlings of the variety Riband (for Zymoseptoria tritici trials) or variety Arina (for Puccinia recondite trials) were grown in the glasshouse until 14d after seeding. At this time, such seedlings usually have a first leaf fully emerged (designated L1), a second leaf fully emerged (L2) and a third leaf (L3) that is partially emerged and in the process of development. Using a permanent pen, two dots were applied on the second leaf such as to generate three segments of roughly equal size: Segment A (at the base), segment B (middle part) and segment C (tip of the leaf). A stock solution of the compound of Formula (I) was produced in water and of benzovindiflupyr in DMSO at a concentration of 10,000 ppm. […] The diluted compound was applied to the middle segment of L2 using a conventional cotton stick; the cotton stick was soaked in the diluted compound and rubbed several times on the adaxial leaf surface between the two marks. One day later, the complete plant was inoculated with a fungal spore suspension using a paint brush. The spore suspension was applied until before run-off.
For infection with Zymoseptoria tritici (preventive), the test plants were inoculated by spraying a spore suspension on them one day after application (1.5 Mio spores per ml in water supplemented with 0.01% Tween20). After an incubation period of 4 days at 22 °C/21 °C (day/night) and 95% rh, the inoculated test plants were kept at 22 °C/21 °C (day/night) and 70% rh in a greenhouse.
The three segments of the leaf were evaluated individually.

[3] = system: Puccinia recondita f. sp. tritici; assay: Puccinia recondita f. sp. tritici / wheat / leaf disc curative (brown rust); settings: for % reduction fungal growth: wheat
Procedure: as §1
Puccinia recondita f. sp. tritici/Wheat/Leaf Disc Curative (Brown Rust)
Wheat leaf segments cv. Kanzler were placed on agar in multiwell plates (24-well format). The leaf segments were inoculated with a spore suspension of the fungus. Plates were stored in darkness at 19 °C and 75% rh. The formulated test compound diluted in water was applied 1 day after inoculation. The leaf segments were incubated at 19 °C and 75% rh under a light regime of 12 h light/12 h darkness in a climate cabinet and the activity of a compound was assessed as percent disease control compared to untreated when an appropriate level of disease damage appeared in untreated check leaf segments (6-8 days after application).

[4] = system: Blumeria graminis f.sp. tritici; assay: Powdery mildew assay in wheat (haustoria formation)

Q: For CC(=O)NC1C(OCC(OC2OC(CO)C(O)C(O)C2O)C2OC(OC3C(O)C(CO)OC(OC4(CO)OC(C(O)CO)C(O)C4OC4OC(CO)C(O)C(O)C4O)C3O)C(O)C(O)C2OC2OC(C(O)CO)C(O)C(O)C2OC2OCC(OC(N)=O)C(O)C2O)OC(CO)C(O)C1O (stereo not drawn) [compound of Formula (I)], which “preventive activity to control Puccinia recondita” value [1] is on record?
A: The value was “preventive (application of compound followed by infection with pathogen)”.

Q: And the “% reduction fungal growth” value ([1]; 0.80 ppm)?
A: Its value is 0%.

Q: And the “% reduction fungal growth” value ([1]; 2.50 ppm)?
A: Its value is 0%.

Q: And the “% reduction fungal growth” value ([1]; 7.40 ppm)?
A: The value was 0%.

Q: And the “% reduction fungal growth” value ([1]; 22.00 ppm)?
A: The value was 0%.

Q: And the “% reduction fungal growth” value ([1]; 67.00 ppm)?
A: Its value is 45%.

Q: And the “% reduction fungal growth” value ([1]; 200.00 ppm)?
A: Its value is 95%.

Q: What about the “% reduction fungal growth” value ([2]; Experiment 1, 200.00 ppm, base segment, preventive) of the same compound?
A: Its value is 24%.

Q: What about the “% reduction fungal growth” value ([2]; Experiment 1, 200.00 ppm, middle segment (treated), preventive) of the same compound?
A: The value was 93%.

Q: What about the “% reduction fungal growth” value ([2]; Experiment 1, 200.00 ppm, tip segment, preventive) of the same compound?
A: The value was 99%.

Q: And the “% reduction fungal growth” value ([2]; Experiment 3, 400.00 ppm, base segment, preventive)?
A: Its value is 1%.

Q: And the “% reduction fungal growth” value ([2]; Experiment 3, 400.00 ppm, middle segment (treated), preventive)?
A: The value was 96%.

Q: What about the “% reduction fungal growth” value ([2]; Experiment 3, 400.00 ppm, tip segment, preventive) of the same compound?
A: Its value is 100%.

Q: What about the “activity against growth of fungus” value ([2]; leaf painting, preventive) of the same compound?
A: Its value is “active against growth”.

Q: And the “control on treated and above treated area” value ([2]; middle segment treated)?
A: The value was “provided control on the treated area (middle segment) as well as the above treated area (tip)”.

Q: And the “curative activity to control Puccinia recondita” value [3]?
A: Its value is “curative (infection of pathogen followed by application of compound) activity”.

Q: What about the “% reduction fungal growth” value ([3]; 0.80 ppm) of the same compound?
A: Its value is 0%.

Q: What about the “% reduction fungal growth” value ([3]; 2.50 ppm) of the same compound?
A: The value was 0%.

Q: What about the “% reduction fungal growth” value ([3]; 7.40 ppm) of the same compound?
A: Its value is 0%.

Q: And the “% reduction fungal growth” value ([3]; 22.00 ppm)?
A: The value was 90%.

Q: And the “% reduction fungal growth” value ([3]; 67.00 ppm)?
A: The value was 100%.

Q: And the “% reduction fungal growth” value ([3]; 200.00 ppm)?
A: The value was 100%.

Q: What about the minimal effective concentration ([4]; Blumeria graminis, 48 h, pre-treated wheat, read-out: concentration at which effect on haustoria formation is observed) of the same compound?
A: Its minimal effective concentration is at least 25 µM.

Q: And the activity at 1 µM ([4]; Blumeria graminis, 1 μM, 48 h after infecting, read-out: haustoria formation (% relative to control))?
A: Its activity at 1 µM is 106%.

Q: And the activity at 25 µM ([4]; Blumeria graminis, 25 μM, 48 h after infecting, read-out: haustoria formation (% relative to control))?
A: The activity at 25 µM was 59.1%.

Q: And the activity at 100 µM ([4]; Blumeria graminis, 100 μM, 48 h after infecting, read-out: haustoria formation (% relative to control))?
A: The activity at 100 µM was 66.4%.

Q: What about the “reduction of haustoria formation” value ([4]; pre-treated wheat) of the same compound?
A: Its value is “reduction of haustoria formation”.

Reference: patent publication US20260344665A1, “FUNGICIDAL COMPOUND” (priority 2022, published 2026)
